Measurements: patent US20110275703A1, “SUBSTITUTED SPIROKETAL DERIVATIVES AND USE THEREOF AS THERAPEUTIC DRUG FOR DIABETES” (CHUGAI SEIYAKU KABUSHIKI KAISHA, priority 2007, published 2011)
Like-named read-outs stand apart in the source and are kept apart here.

Legend:
db/db mice = test: Study for glucose lowering effect in db/db mouse; type: in vivo; settings: for inhibition in vivo at 0.3 mg/kg: Mus musculus; for Percent reduction of blood glucose (%) 6 hours after administration / inhibition in vivo at 0.3 mg/kg: 6 hours
Procedure: Study for Glucose Lowering Effect in dB/dB Mouse
A study for glucose lowering effect was conducted using db/db mice (purchased from Clea Japan, Inc., male, 9 to 11 weeks old), type 2 diabetic model mice. On the day of the study, body weights and blood glucose levels were measured prior to the start of testing. Measurement of the blood glucose levels was performed using a simple blood glucose meter (manufactured by Bayer HealthCare, Dexter-Z II). The mice were allocated to some groups consisting of 5 mice each so that homogeneity of body weights or blood glucose levels among groups would be ensured. Blood collection was carried out by making an incision on the tip of the tail and taking the blood therefrom. On the day of the study, the test compounds were suspended in 0.5% carboxymethylcellulose solution (CMC solution), and the dosing solutions of which concentration was adjusted to either 0.3 mg/10 mL or 3 mg/10 mL were prepared. The dosing solutions were orally administered by gavage for mice in 10 mL/kg. To the control group, only a 0.5% CMC solution was orally administered in 10 mL/kg. Blood was collected prior to or sequentially after administration of test compounds by above method. The blood glucose levels were determined using a hexokinase method (AutoSera S GLU, manufactured by Daiichi Pure Chemicals Co., Ltd.). A percent reduction of blood glucose relative to control group at each time point after administration of test compounds was calculated by the following equation.
Percent reduction of blood glucose (%)={blood glucose level in the control group (mg/dL)-blood glucose level in the test compound group (mg/dL)}/blood glucose level in the control group (mg/dL)×100

human SGLT2 = target: T1, human SGLT2 (Homo sapiens, UniProt P31639); test: Inhibitory activity against methyl-α-D-glucopyranoside uptake, CHO cells stably expressing human SGLT2; type: cell-based; settings: inhibition of SGLT2, Table 2-1; read-out: IC50 value
T1 construct: expressed in transfected cells; host or cells: CHO-K1
T1 sequence (P31639 1-672): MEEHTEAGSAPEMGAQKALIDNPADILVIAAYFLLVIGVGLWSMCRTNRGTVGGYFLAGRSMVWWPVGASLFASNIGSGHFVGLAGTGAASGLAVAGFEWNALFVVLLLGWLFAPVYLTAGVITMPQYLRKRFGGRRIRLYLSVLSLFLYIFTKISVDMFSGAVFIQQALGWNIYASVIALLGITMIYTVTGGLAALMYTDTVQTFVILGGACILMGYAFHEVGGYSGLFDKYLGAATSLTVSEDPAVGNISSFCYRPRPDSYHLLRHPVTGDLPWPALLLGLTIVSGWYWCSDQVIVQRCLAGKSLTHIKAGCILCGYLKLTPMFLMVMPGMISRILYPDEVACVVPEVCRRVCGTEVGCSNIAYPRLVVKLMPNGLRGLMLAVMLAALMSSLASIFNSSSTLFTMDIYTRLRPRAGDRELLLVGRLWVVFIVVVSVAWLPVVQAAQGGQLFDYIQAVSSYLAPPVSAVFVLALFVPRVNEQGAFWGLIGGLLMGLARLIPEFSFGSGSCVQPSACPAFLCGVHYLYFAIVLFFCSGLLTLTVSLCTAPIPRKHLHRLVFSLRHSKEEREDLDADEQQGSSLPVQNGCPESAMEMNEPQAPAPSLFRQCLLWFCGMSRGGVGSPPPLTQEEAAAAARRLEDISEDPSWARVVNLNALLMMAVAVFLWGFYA
Text: Evaluation of inhibitory activity against methyl-α-D-glucopyranoside uptake of human Na^+-glucose cotransporter (SGLT1 and SGLT2)
2) Construction of Human SGLT2 Expression Vector
Human SGLT2 cDNA was amplified by PCR with a cDNA library derived from human kidney (Clontech) as a template, synthetic DNA primers and KOD+ DNA Polymerase. The amplified cDNA was inserted into pcRII-Topo vector by using a Topo TA Cloning Dual Promoter kit. E. coli competent cells (TPO10) were transformed with the plasmid vector, cultured in LB medium containing ampicillin (50 mg/L) to grow ampicillin-resistant clones. The plasmid vector containing human SGLT2 cDNA was purified from the clone in a standard manner. Human SGLT2 cDNA added restriction enzyme recognition sites (Xho I at 5′-end, Hind III at 3′-end) was amplified by PCR with the plasmid vector as a template, synthetic DNA primers containing an additional restriction enzyme recognition site and KOD+ DNA Polymerase. This amplified cDNA was digested with Xho I and Hind III, and ligated into expression vector pcDNA3.1(−) digested with Xho I and Hind III by using a Rapid DNA Ligation kit. E. coli competent cells (DH5α) were transformed with the ligated expression vector and grown in ampicillin-containing LB medium. Human SGLT2 expression vector was purified from the ampicillin-resistant clone in a standard manner.
3) Establishment of Cell Lines Stably Expressing Human SGLT1 or Human SGLT2
The human SGLT1 expression vector or the human SGLT2 expression vector was digested with the restriction enzyme Pvu I and transfected into CHO-Kl cells with FuGENE (Roche Diagonostics). After the transfection, the cells were cultured at 37° C. in the presence of 5% CO2 for about 3 weeks in DMEM medium (Gibco) containing penicillin (50 U/mL, SIGMA), streptomycin (50 mg/L, SIGMA), geneticin (200 mg/L, Nacalai Tesque, Inc., Japan) and 20% fetal bovine serum to obtain geneticin-resistant clones. Among these clones, clones stably expressing human SGLT1 or human SGLT2 were selected by the evaluating the sodium-dependent uptake activity of sugar (methyl-α-D-glucopyranoside).
4) Evaluation of Inhibitory Activity Against methyl-α-D-glucopyranoside uptake
Cell lines stably expressing human SGLT1 or human SGLT2 CHO were seeded in 96-well culture plates at a density of 30000 to 40000 cells/well and cultured for 4 to 6 days. The medium in these plates was removed and replaced by 150 μL/well pretreatment buffer (i.e., a buffer containing 140 mM choline chloride, 2 mM potassium chloride, 1 mM calcium chloride, 1 mM magnesium chloride, 10 mM 2-[4-(2-hydroxyethyl)-1-piperazinyl]ethanesulfonic acid and tris(hydroxymethyl)aminomethane, pH 7.4), and the plates were incubated at 37° C. for 20 minutes. The pretreatment buffer in the plates was removed, replaced by 50 μL/well fresh pretreatment buffer, and the plates were incubated at 37° C. for 20 minutes. Methyl-α-D-(U—^14C)glucopyranoside (6.3 mL, Amersham Pharmacia Biotech, 200 mCi/L) was added to and mixed with 100 mL buffer (i.e., a buffer containing 140 mM sodium chloride, 2 mM potassium chloride, 1 mM calcium chloride, 1 mM magnesium chloride, 1 mM methyl-α-D-glucopyranoside, 10 mM [4-(2-hydroxyethyl)-1-piperazinyl]ethanesulfonic acid and tris(hydroxymethyl)aminomethane, pH 7.4), which was used as uptake buffer. Test compounds were dissolved into uptake buffer and these test compound solutions were used for evaluating inhibitory activity. Uptake buffer without a test compound was used as a control solution. Moreover, for use in measuring baseline uptake in the absence of sodium, sodium-free solution was prepared in the same manner to contain 140 mM choline chloride instead of sodium chloride. The pretreatment buffer was removed from each well of the plates and replaced by 35 μL/well test compound solutions, control solution or sodium-free solution, and the plates were incubated at 37° C. for 45 minutes. […]

[1] = oral, 0.3 mg/kg, relative to control group, Table 3-2
[2] = oral, 3.0 mg/kg, relative to control group, Table 3-2
[3] = po, 0.3 mg/kg administration, read-out: reduction of blood glucose 6 hours after administration
[4] = oral, 0.3 mg/kg, relative to control group, Table 3-1, read-out: Percent reduction of blood glucose (%) 6 hours after administration

| SMILES | IC50 (human SGLT2) [nM] | inhibition in vivo at 0.3 mg/kg (db/db mice; [3]) [%] | other results |
| --- | --- | --- | --- |
| CC(C)c1ccc(Cc2ccc3c(c2)C2(OC3)OC(CO)C(O)C(O)C2O)cc1 (stereo not drawn) [Comparative Compound 2, 1,1-anhydro-1-C-[5-(4-isopropylphenyl)methyl-2-(hydroxymethyl)phenyl]-β-glucopyranose, reference compound] | – | – | Percent reduction of blood glucose (%) 6 hours after administration (db/db mice; oral, 0.3 mg/kg, relative to control group, Table 3-1): 16%; Percent reduction of blood glucose (%) 6 hours after administration (db/db mice; [1]): 16%; Percent reduction of blood glucose (%) 24 hours after administration (db/db mice; [1]): 4.9%; Percent reduction of blood glucose (%) 6 hours after administration (db/db mice; [2]): 53%; Percent reduction of blood glucose (%) 24 hours after administration (db/db mice; [2]): 13% |
| Cc1ccc(Cc2cc3c(cc2Cl)CO[C@]32O[C@H](CO)[C@@H](O)[C@H](O)[C@H]2O)cc1 [Example 2, (1S,3′R,4′S,5′S,6′R)-5-chloro-3′,4′,5′,6′-tetrahydro-6′-(hydroxymethyl)-6-[(4-methylphenyl)methyl]-spiro[isobenzofuran-1(3H),2′-[2H]pyran]-3′,4′,5′-triol] | 1.2 | – | – |
| CSc1ccc(Cc2cc3c(cc2Cl)CO[C@]32O[C@H](CO)[C@@H](O)[C@H](O)[C@H]2O)cc1 [Example 3, (1S,3′R,4′S,5′S,6′R)-5-chloro-3′,4′,5′,6′-tetrahydro-6′-(hydroxymethyl)-6-[(4-(methylthio)phenyl)methyl]-spiro[isobenzofuran-1(3H),2′-[2H]pyran]-3′,4′,5′-triol] | 1.3 | – | – |
| COc1ccc(Cc2cc3c(cc2Cl)CO[C@]32O[C@H](CO)[C@@H](O)[C@H](O)[C@H]2O)cc1 [Example 4, (1S,3′R,4′S,5′S,6′R)-5-chloro-3′,4′,5′,6′-tetrahydro-6′-(hydroxymethyl)-6-[(4-methoxyphenyl)methyl]-spiro[isobenzofuran-1(3H),2′-[2H]pyran]-3′,4′,5′-triol] | 1 | – | – |
| OC[C@H]1O[C@]2(OCc3cc(Cl)c(Cc4ccc(Cl)cc4)cc32)[C@H](O)[C@@H](O)[C@@H]1O [Example 6, (1S,3′R,4′S,5′S,6′R)-5-chloro-6-[(4-chlorophenyl)methyl]-3′,4′,5′,6′-tetrahydro-6′-(hydroxymethyl)-spiro[isobenzofuran-1(3H),2′-[2H]pyran]-3′,4′,5′-triol] | 1.3 | ≥ 25 | – |
| OC[C@H]1O[C@]2(OCc3cc(Cl)c(Cc4ccc(CC(F)F)cc4)cc32)[C@H](O)[C@@H](O)[C@@H]1O [Example 10, (1S,3′R,4′S,5′S,6′R)-5-chloro-6-[(4-(2,2-difluoroethyl)phenyl)methyl]-3′,4′,5′,6′-tetrahydro-6′-(hydroxymethyl)-spiro[isobenzofuran-1(3H),2′-[2H]pyran]-3′,4′,5′-triol] | 1.2 | ≥ 25 | – |
| OC[C@H]1O[C@]2(OCc3cc(Cl)c(Cc4ccc(OC(F)(F)F)cc4)cc32)[C@H](O)[C@@H](O)[C@@H]1O [Example 11, (1S,3′R,4′S,5′S,6′R)-5-chloro-6-[(4-trifluoromethoxyphenyl)methyl]-3′,4′,5′,6′-tetrahydro-6′-(hydroxymethyl)-spiro[isobenzofuran-1(3H),2′-[2H]pyran]-3′,4′,5′-triol] | 1.9 | – | inhibition in vivo at 0.3 mg/kg (db/db mice; [4]): 45% |
| CC(=O)c1ccc(Cc2cc3c(cc2Cl)CO[C@]32O[C@H](CO)[C@@H](O)[C@H](O)[C@H]2O)cc1 [Example 12, (1S,3′R,4′S,5′S,6′R)-6-[(4-acetylphenyl)methyl]-5-chloro-3′,4′,5′,6′-tetrahydro-6′-(hydroxymethyl)-spiro[isobenzofuran-1(3H),2′-[2H]pyran]-3′,4′,5′-triol] | 1.5 | – | inhibition in vivo at 0.3 mg/kg (db/db mice; [4]): 27% |
| OC[C@H]1O[C@]2(OCc3cc(Cl)c(Cc4ccc(C(F)(F)F)cc4)cc32)[C@H](O)[C@@H](O)[C@@H]1O [Example 13, (1S,3′R,4′S,5′S,6′R)-5-chloro-6-[(4-trifluoromethylphenyl)methyl]-3′,4′,5′,6′-tetrahydro-6′-(hydroxymethyl)-spiro[isobenzofuran-1(3H),2′-[2H]pyran]-3′,4′,5′-triol] | 1.7 | ≥ 25 | – |
| CC(C)(C)c1ccc(Cc2cc3c(cc2Cl)CO[C@]32O[C@H](CO)[C@@H](O)[C@H](O)[C@H]2O)cc1 [Example 14, (1S,3′R,4′S,5′S,6′R)-6-[(4-tert-butylphenyl)methyl]-5-chloro-3′,4′,5′,6′-tetrahydro-6′-(hydroxymethyl)-spiro[isobenzofuran-1(3H),2′-[2H]pyran]-3′,4′,5′-triol] | 3.4 | ≥ 25 | – |
| OC[C@H]1O[C@]2(OCc3cc(Cl)c(Cc4cc5ccccc5s4)cc32)[C@H](O)[C@@H](O)[C@@H]1O [Example 28, (1S,3′R,4′S,5′S,6′R)-6-[(benzothiophen-2-yl)methyl]-5-chloro-3′,4′,5′,6′-tetrahydro-6′-(hydroxymethyl)-spiro[isobenzofuran-1(3H),2′-[2H]pyran]-3′,4′,5′-triol] | 1.4 | – | – |
| CCc1ccc(Cc2cc3c(cc2Cl)CO[C@]32O[C@H](CO)[C@@H](O)[C@H](O)[C@H]2O)s1 [Example 29, (1S,3′R,4′S,5′S,6′R)-5-chloro-6-[(5-ethylthiophen-2-yl)methyl]-3′,4′,5′,6′-tetrahydro-6′-(hydroxymethyl)-spiro[isobenzofuran-1(3H),2′-[2H]pyran]-3′,4′,5′-triol] | 1.5 | – | – |
